Measured values from US4847293A, “Tetraenyl prostaglandins” (priority 1988, dated 1989).

Key:
[1] = Diarrhea Assay; format: in vivo, male Charles River rats; details: in vivo
[2] = system: diarrhea; assay: Diarrhea Assay; format: in vivo, male Charles River rats

Compound | selectivity ratio ([1]; ratio of rat diarrhea ED50 to Pavlov pouch antisecretory ED50, read-out: Thrapeutic Index ED50 diarrhea/ED50 antisecretory) | Diarrhea Assay Rat (iv) ED50 ([2]; Rat (iv) per table head, method text: intragastric, fasted rats, up to eight hours) [mg/kg] | TD50 ([1]; Rat (iv) per table head, method text: intragastric, fasted rats, up to eight hours, read-out: Diarrhea Assay Rat (iv) ED50) [mg/kg] | Diarrhea Assay Rat (iv), result in words ([2]; Rat (iv), at 3200 mcg/kg)
COC(=O)CC/C=C\CC[C@H]1C(=O)C[C@@H](O)[C@@H]1/C=C/CC(C)(O)/C=C/C1=CCCC1 (relative stereo) [Example 1, methyl 7-[3α-hydroxy-2β-(4-hydroxy-4-methyl-6-(1'-cyclopentenyl)-1,5-trans,trans-hexadienyl)-5-oxocyclopentane]-1-α-hept-4-cis-enoate] | 160000 | 3.2 |  | 
COC(=O)CC/C=C\CC[C@H]1C(=O)C[C@@H](O)[C@@H]1/C=C/CC(C)(O)/C=C/C=C(C)C (relative stereo) [Example 2] |  |  | 3.2 | inactive
